{"source": "patent US20090042725A1", "about": "“Fungicidal Mixtures Based on 3,5-Disubstituted N-Biphenyl-Pyrazolcarboxamides” (BASF Aktiengesellschaft, priority 2005, published 2009)", "key": {"Puccinia recondite": {"test_system": "Puccinia recondite", "assay": "Protective activity against Puccinia recondite on wheat (brown rust of wheat)", "type": "in vivo", "details": "wheat seedlings cultivar Kanzler, sprayed 1 day before inoculation, efficacy in % of untreated control (90% infection), read-out: Observed activity (% infection); for inhibition at 1 µg/mL: 1 mg/l; for inhibition at 4 µg/mL: 4 mg/l", "procedure": "(§1) The active compounds, separately or jointly, were prepared as a stock solution comprising 25 mg of active compound which was made up to 10 ml using a mixture of acetone and/or dimethyl sulfoxide and the emulsifier Uniperol® EL (wetting agent having an emulsifying and dispersing action based on ethoxylated alkylphenols) in a ratio by volume of solvent/emulsifier of 99:1. The mixture was then made up to 100 ml with water. This stock solution was diluted with the solvent/emulsifier/water mixture described to give the concentration of active compound stated below.\n(§2) Alternatively, the active compounds epoxiconazole and pyraclostrobin were used as a commercial formulation and diluted with water to the stated active compound concentrations.\n(§3) The visually determined percentages of infected leaf areas were converted into efficacies in % of the untreated control.\n(§4) The efficacy (E) is calculated as follows using Abbot's formula: […]\n(§5) α corresponds to the fungicidal infection of the treated plants in % and β corresponds to the fungicidal infection of the untreated (control) plants in %\n(§6) An efficacy of 0 means that the infection level of the treated plants corresponds to that of the untreated control plants; an efficacy of 100 means that the treated plants were not infected.\nThe expected efficacies of active compound mixtures were determined using Colby's formula [R. S. Colby, “Calculating synergistic and antagonistic responses of herbicide combinations”, Weeds 15, 20-22 (1967)] and compared with the observed efficacies.\nE=x+y−x·y/100 Colby's formula • E expected efficacy, expressed in % of the untreated control, when using the mixture of the active compounds A and B at the concentrations a and b; • x efficacy, expressed in % of the untreated control, when using the active compound A at the concentration a; • y efficacy, expressed in % of the untreated control, when using the active compound B at the concentration b;\nLeaves of potted wheat seedlings of the cultivar “Kanzler” were sprayed to runoff point with an aqueous suspension having the concentration of active compound stated below. The next day the treated plants were inoculated with a spore suspension of brown rust of wheat (Puccinia recondite). The plants were then placed in a chamber at high atmospheric humidity (90 to 95%) at 20 to 22° C. for 24 hours. During this time, the spores germinated and the germ tubes penetrated into the leaf tissue. The next day, the test plants were returned to the greenhouse and cultivated at temperatures between 20 and 22° C. and 65 to 70% relative atmospheric humidity for a further 7 days. The extent of the rust fungus development on the leaves was then determined visually."}, "Botrytis cinerea": {"test_system": "Botrytis cinerea", "assay": "Activity against gray mold on bell pepper leaves caused by Botrytis cinerea, 1 day protective application", "type": "in vivo", "details": "bell pepper seedlings, sprayed 1 day before inoculation, 4 mg/l, rated after 5 days, efficacy in % of untreated control (100% infection), read-out: Observed activity (% infection)", "procedure": "as §1, §2, §3, §4, §5, §6\n(§7) The expected efficacies of active compound mixtures were determined using Colby's formula [R. S. Colby, “Calculating synergistic and antagonistic responses of herbicide combinations”, Weeds 15, 20-22 (1967)] and compared with the observed efficacies. […]\nBell pepper seedlings of the cultivar “Neusiedler Ideal Elite” were, after 2-3 leaves were well developed, sprayed to runoff point with an aqueous suspension in the active compound concentration stated below. […] After 5 days, the extent of the fungal infection on the leaves could be determined visually in %."}, "Alternaria solani": {"test_system": "Alternaria solani", "assay": "Activity against early blight on tomatoes caused by Alternaria solani", "type": "in vivo", "details": "tomato plants, sprayed 1 day before infection, rated after 5 days, efficacy in % of untreated control (90% infection), read-out: Observed activity (% infection); for inhibition at 63 µg/mL: 63 mg/l", "procedure": "as §1, §2, §3, §4, §5, §6, §7\nLeaves of potted tomato plants were sprayed to runoff point with an aqueous suspension having the concentration of active compounds stated below. […] After 5 days, the disease on the untreated, but infected control plants had developed to such an extent that the infection could be determined visually in %."}, "[1]": {"test_system": "Erysiphe [syn. Blumeria] graminis forma specialis. tritici", "assay": "Activity against mildew of wheat caused by Erysiphe [syn. Blumeria] graminis forma specialis. tritici", "type": "in vivo", "details": "wheat seedlings, sprayed 24 hours before dusting with spores, 1 mg/l, rated after 7 days; efficacy in % of untreated control (90% infection); read-out: Observed activity (% infection)", "procedure": "as §1, with “below. […]” for “below.”\nas §3, §4, §7\nLeaves of potted wheat seedlings were sprayed to runoff point with an aqueous suspension having the active compound concentration stated below. […] After 7 days, the extent of the mildew development was determined visually in % infection of the entire leaf area."}, "Phakopsora pachyrhizi": {"test_system": "Phakopsora pachyrhizi", "assay": "Curative activity against soybean rust caused by Phakopsora pachyrhizi", "type": "in vivo", "details": "soybean seedlings cultivar Oxford, sprayed 2 days after inoculation, 4 mg/l, rated after 14 days, efficacy in % of untreated control (90% infection), read-out: Observed activity (% infection)", "procedure": "as §1, §2, §3, §4, §7\nLeaves of potted soybean seedlings of the cultivar “Oxford” were inoculated with a spore suspension of soybean rust (Phakopsora pachyrhizi). […] The extent of the rust fungus development on the leaves was then determined"}}}
{"smiles": "COC(=O)N(OC)c1ccccc1COc1ccn(-c2ccc(Cl)cc2)n1", "note": "[pyraclostrobin, methyl N-{2-[1-(4-chlorophenyl)-1H-pyrazol-3-yloxymethyl]phenyl}(N-methoxy)carbamate]", "values": [{"measurement": "inhibition at 1 µg/mL", "setting": "Puccinia recondite", "value": 0, "unit": "%"}, {"measurement": "inhibition at 4 µg/mL", "setting": "Botrytis cinerea", "value": 0, "unit": "%"}]}
{"smiles": "Cn1cc(C(=O)Nc2ccccc2-c2cc(Cl)cc(Cl)c2)c(C(F)F)n1", "note": "[No. I.4, N-(3′,5′-dichlorobiphenyl-2-yl)-1-methyl-3-difluoromethyl-1H-pyrazole-4-carboxamide]", "values": [{"measurement": "inhibition at 1 µg/mL", "setting": "Puccinia recondite", "value": 56, "unit": "%"}, {"measurement": "inhibition at 16 µg/mL", "setting": "Alternaria solani; 16 mg/l", "value": 44, "unit": "%"}, {"measurement": "inhibition at 1 µg/mL", "setting": "[1]", "value": 0, "unit": "%"}]}
{"smiles": "COc1ccc(C(=CC(=O)N2CCOCC2)c2ccc(Cl)cc2)cc1OC", "note": "[dimethomorph, 3-(4-chlorophenyl)-3-(3,4-dimethoxyphenyl)-1-morpholin-4-yl-propenone]", "values": [{"measurement": "inhibition at 4 µg/mL", "setting": "Puccinia recondite", "value": 5, "unit": "%"}, {"measurement": "inhibition at 63 µg/mL", "setting": "Alternaria solani", "value": 0, "unit": "%"}]}
{"smiles": "COc1cc(C)c(C(=O)c2c(OC)ccc(Br)c2C)c(OC)c1OC", "note": "[metrafenone, 3′-bromo-2,3,4,6′-tetramethoxy-2′,6-dimethylbenzophenone]", "values": [{"measurement": "inhibition at 4 µg/mL", "setting": "Puccinia recondite", "value": 0, "unit": "%"}, {"measurement": "inhibition at 63 µg/mL", "setting": "Alternaria solani", "value": 0, "unit": "%"}]}
{"smiles": "CC1CCN(c2c(-c3c(F)cc(F)cc3F)c(Cl)nc3ncnn23)CC1", "note": "[5-chloro-7-(4-methylpiperidin-1-yl)-6-(2,4,6-trifluorophenyl)-[1,2,4]triazolo[1,5-a]pyrimidine]", "values": [{"measurement": "inhibition at 4 µg/mL", "setting": "Phakopsora pachyrhizi", "value": 28, "unit": "%"}]}
{"smiles": "Cn1cc(C(=O)Nc2ccccc2-c2cc(Cl)cc(Cl)c2)c(C(F)(F)F)n1", "note": "[No. I.1, 1-methyl-3-trifluoromethyl-N-(ortho-(3,5-dichlorophenyl)phenyl)-pyrazole-4-carboxamide]", "values": [{"measurement": "inhibition at 1 µg/mL", "setting": "Puccinia recondite", "value": 52, "unit": "%"}, {"measurement": "inhibition at 4 µg/mL", "setting": "Botrytis cinerea", "value": 0, "unit": "%"}, {"measurement": "melting point", "value": "101 to 105", "unit": "°C"}]}
{"smiles": "Fc1ccc([C@]2(Cn3cncn3)O[C@H]2c2ccccc2Cl)cc1", "note": "(racemic) [epoxiconazole, (2RS,3SR)-1-[3-(2-chlorophenyl)-2,3-epoxy-2-(4-fluorophenyl)propyl]-1H-1,2,4-triazole]", "values": [{"measurement": "inhibition at 4 µg/mL", "setting": "Botrytis cinerea", "value": 10, "unit": "%"}]}
